Holding throughout (assay): two-electrode voltage clamp, Xenopus oocytes
One test relates to T1, OR20.
T1 construct: full-length cDNA from adult antennae in pT7Ts; co-expressed with ORCO in Xenopus oocytes; with Odorant receptor coreceptor
Format: cell-based, Cimex lectularius. The conditions noted are these: co-expressed with ORCO; pH 7.6 Ringer's solution; −80 mV; agonist current.

The subject of another test is T2, OR21.
T2 construct: full-length cDNA from adult antennae in pT7Ts; co-expressed with ORCO in Xenopus oocytes; with Odorant receptor coreceptor
Format: cell-based, Cimex lectularius. As to conditions: co-expressed with ORCO; pH 7.6 Ringer's solution; −80 mV; agonist current.

For a further test, the system named is T3, OR19.
T3 construct: full-length cDNA from adult antennae in pT7Ts; co-expressed with ORCO in Xenopus oocytes; with Odorant receptor coreceptor
The test is classed as cell-based, Cimex lectularius. The conditions noted are these: co-expressed with ORCO; pH 7.6 Ringer's solution; −80 mV; agonist current.

A further test deals with T4, OR37 (Cimex lectularius, UniProt A0A8I6S1W4).
T4 construct: gene 106669445; full-length cDNA from adult antennae in pT7Ts; co-expressed with ORCO in Xenopus oocytes; with Odorant receptor coreceptor
T4 sequence (A0A8I6S1W4 1-374): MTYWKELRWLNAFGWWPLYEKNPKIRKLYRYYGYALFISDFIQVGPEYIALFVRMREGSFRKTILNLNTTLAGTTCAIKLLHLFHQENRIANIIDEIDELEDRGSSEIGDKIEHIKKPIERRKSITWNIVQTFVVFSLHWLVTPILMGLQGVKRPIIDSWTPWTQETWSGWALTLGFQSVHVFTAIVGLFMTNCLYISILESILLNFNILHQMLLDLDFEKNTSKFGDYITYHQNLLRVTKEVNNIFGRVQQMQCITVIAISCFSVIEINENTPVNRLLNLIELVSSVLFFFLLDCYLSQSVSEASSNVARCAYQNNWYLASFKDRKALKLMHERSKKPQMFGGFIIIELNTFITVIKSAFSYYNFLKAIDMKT
T4 sequence (A0A0A0U7J0 1-451 partner): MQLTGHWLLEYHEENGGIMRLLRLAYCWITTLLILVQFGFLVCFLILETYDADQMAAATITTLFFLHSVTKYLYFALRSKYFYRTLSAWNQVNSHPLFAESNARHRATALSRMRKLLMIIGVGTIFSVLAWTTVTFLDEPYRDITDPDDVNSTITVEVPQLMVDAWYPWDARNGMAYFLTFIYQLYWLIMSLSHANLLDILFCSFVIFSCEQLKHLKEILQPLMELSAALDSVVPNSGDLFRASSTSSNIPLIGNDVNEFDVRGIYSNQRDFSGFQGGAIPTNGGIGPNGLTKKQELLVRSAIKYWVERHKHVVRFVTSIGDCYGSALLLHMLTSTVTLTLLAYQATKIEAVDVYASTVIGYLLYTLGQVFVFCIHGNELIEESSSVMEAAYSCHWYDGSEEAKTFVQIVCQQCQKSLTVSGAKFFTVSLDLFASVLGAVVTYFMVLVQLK
Format: cell-based. As to conditions: co-expressed with ORCO; pH 7.6 Ringer's solution; −80 mV; agonist current.

The test system of a further test is T5, OR36.
T5 construct: full-length cDNA from adult antennae in pT7Ts; co-expressed with ORCO in Xenopus oocytes; with Odorant receptor coreceptor
The test is classed as cell-based, Cimex lectularius. As to conditions: co-expressed with ORCO, pH 7.6 Ringer's solution, −80 mV, agonist current.

Another test relates to T6, OR46.
T6 construct: full-length cDNA from adult antennae in pT7Ts; co-expressed with ORCO in Xenopus oocytes; with Odorant receptor coreceptor
The test is classed as cell-based, Cimex lectularius. The conditions noted are these: co-expressed with ORCO; pH 7.6 Ringer's solution; −80 mV; agonist current.

The next test concerns T7, OR42.
T7 construct: full-length cDNA from adult antennae in pT7Ts; co-expressed with ORCO in Xenopus oocytes; with Odorant receptor coreceptor
The test is classed as cell-based, Cimex lectularius. The conditions noted are these: co-expressed with ORCO; pH 7.6 Ringer's solution; −80 mV; agonist current.

Another test has as its system T8, OR1.
T8 construct: full-length cDNA from adult antennae in pT7Ts; co-expressed with ORCO in Xenopus oocytes; OR numbering of the bed bug genome annotation (47 ORs), not the earlier group naming in which OR5 was called OR1; with Odorant receptor coreceptor
The test is classed as cell-based, Cimex lectularius. As to conditions: co-expressed with ORCO; pH 7.6 Ringer's solution; −80 mV; agonist current.

The next test has as its system T9, OR47.
T9 construct: full-length cDNA from adult antennae in pT7Ts; co-expressed with ORCO in Xenopus oocytes; with Odorant receptor coreceptor
Format: cell-based, Cimex lectularius. The conditions noted are these: co-expressed with ORCO; pH 7.6 Ringer's solution; −80 mV; agonist current.

Another test has as its system T10, OR5.
T10 construct: full-length cDNA from adult antennae in pT7Ts; co-expressed with ORCO in Xenopus oocytes; called OR1 in the group's previous work; with Odorant receptor coreceptor
Format: cell-based, Cimex lectularius. As to conditions: co-expressed with ORCO; pH 7.6 Ringer's solution; −80 mV; agonist current.

The next test has as its system T11, OR12.
T11 construct: full-length cDNA from adult antennae in pT7Ts; co-expressed with ORCO in Xenopus oocytes; with Odorant receptor coreceptor
The test is classed as cell-based, Cimex lectularius. The conditions noted are these: co-expressed with ORCO; pH 7.6 Ringer's solution; −80 mV; agonist current.

For the next test, the system named is T12, OR15.
T12 construct: full-length cDNA from adult antennae in pT7Ts; co-expressed with ORCO in Xenopus oocytes; with Odorant receptor coreceptor
The test is classed as cell-based, Cimex lectularius. The conditions noted are these: co-expressed with ORCO; pH 7.6 Ringer's solution; −80 mV; agonist current.

Structures are written as SMILES.

With `C=CC(O)CCCCC` (centres unmarked) [1-octen-3-ol], the EC50 in the test with OR20 is 6.95 × 10^−6 v/v dilution.

`CC1=CC[C@@H]2[C@H](C1)C2(C)C` [1s-(+)-3-carene]: in the test with OR20, the EC50 is listed as 6.85 × 10^−6 v/v dilution.

On to `CCCCCCCCC(C)O` (centres unmarked) [2-decanol], for which the EC50 in the test on OR21 is listed as 7.55 × 10^−6 v/v dilution.

For the molecule `CCCCC(C)=O` [2-hexanone], in the test on OR19, the EC50 was 1.33 × 10^−6 v/v dilution.

In the case of `CCCC(C)=O` [2-pentanone], in the test on OR19, the EC50 was 4.13 × 10^−6 v/v dilution.

Take `CC(C)[C@H]1CC[C@H](C)CC1=O` [(+)-menthone]: the EC50 on OR37 is 1.93 × 10^−7 v/v dilution; with OR36 (b26 prints 9.67 × 10^−8 for the same pair) it was 9.92 × 10^−8 v/v dilution; with OR46, 3.46 × 10^−5 v/v dilution.

For the molecule `CC1=CC[C@@H]2C[C@H]1C2(C)C` [(+)-α-pinene], the EC50 in the test with OR42 is 1.32 × 10^−5 v/v dilution.

For the molecule `CC(C)[C@@H]1CC[C@@H](C)CC1=O` [(−)-menthone], in the test with OR36, the EC50 is 1.64 × 10^−7 v/v dilution.

For `CC12CCC(CC1=O)C2(C)C` (centres unmarked) [camphor], the EC50 in the test on OR1 is recorded as 1.94 × 10^−5 v/v dilution.

On to `CC(C)=CCCC(C)=CC=O` [citral], for which the EC50 at OR37 is listed as 3.32 × 10^−8 v/v dilution.

Consider `O=c1ccc2ccccc2o1` [coumarin], for which the results for the EC50 in the test with OR42 and in the test on OR47 were 1.45 × 10^−5 v/v dilution and 2 × 10^−5 v/v dilution, respectively.

Take `CCCCCCCCCC=O` [decanal]: the EC50 with OR5 is on record as 1.53 × 10^−6 v/v dilution; with OR21 it was 4.27 × 10^−6 v/v dilution.

In the case of `CC12CCC(CC1)C(C)(C)O2` [eucalyptol], the EC50 with OR1 is reported as 1.88 × 10^−5 v/v dilution.

With `CCCCCCCCC=O` [nonanal], the EC50 in the test on OR5 is 1.32 × 10^−7 v/v dilution.

As to `CCCCC/C=C/CO` [trans-2-octen-1-ol], the EC50 with OR12 is reported as 1.03 × 10^−4 v/v dilution.

In the case of `C=C1CC/C=C(\C)CC[C@@H]2[C@@H]1CC2(C)C` [β-caryophyllene], the EC50 in the test with OR15 was 6.46 × 10^−6 v/v dilution.

The values are drawn from publication PMC5382537, “Molecular Basis of Olfactory Chemoreception in the Common Bed Bug, Cimex lectularius” (Scientific Reports, 2017).
